According to paper doi:10.1101/2025.09.30.679521v1, “Crystallographic characterisation and development of bi-substrate inhibitors of coronavirus nsp14 methyltransferase” (biorxiv, 2025):
Read-outs that look alike come from different tables or passages of the source.

Columns and labels:
physchem [1] = experiment: physchem
human RNMT [2] = biological target: T1, human RNMT (Homo sapiens, UniProt O43148); experiment: RNMT methyltransferase assay (Gray et al.); assay type: biochemical
Source text: RNMT methyltransferase assay (Gray et al.) on human RNMT

SARS-CoV-2 nsp14 = biological target: T2, SARS-CoV-2 nsp14 (Severe acute respiratory syndrome coronavirus 2, UniProt P0DTD1); experiment: RapidFire MS methyltransferase assay; assay type: biochemical
T2 construct: gene rep
Source text: RapidFire MS methyltransferase assay on SARS-CoV-2 nsp14

HCoV-229E nsp14 = biological target: T3, HCoV-229E nsp14 (Human coronavirus 229E, UniProt P0C6X1); experiment: RapidFire MS methyltransferase assay; assay type: biochemical
T3 construct: gene rep
Source text: RapidFire MS methyltransferase assay on HCoV-229E nsp14

in vitro = experiment: in vitro; set-up: mouse liver microsomal stability; details: liver microsomes; Mouse liver microsomes; read-out: Mouse liver Mic T1/2 / min
Source text: We initiated our structure-activity relationship (SAR) studies by investigating various replacements for the benzothiazole group, compounds 2-17, Table 1. […] Relatively flat SAR is observed across this subset of compounds, indeed a 6,5 or 6,6 aromatic system with the appropriate connectivity as compound 1 display relatively similar potencies. […] In general, the mouse microsomal clearance was rather low for this set of molecules, with no significant instabilities introduced, with perhaps the exception of compound 4. With no significant advantages in either potency or mouse microsomal clearance (Table S2) identified for this subset, the benzothiazole was taken forward into subsequent SAR studies. Table 2. Enzymatic inhibition against SARS-CoV-2 nsp14, human RNMT, CHI-logD and mouse microsomal stability.

HCoV-NL63 nsp14 = HCoV-NL63 nsp14 (Human coronavirus NL63, UniProt P0C6X5); experiment: RapidFire MS methyltransferase assay; assay type: biochemical
Source text: RapidFire MS methyltransferase assay on HCoV-NL63 nsp14

physchem [3] = experiment: physchem; remark: listed apart in the source
human RNMT [4] = biological target: T1, human RNMT; experiment: biochemical; set-up: human RNMT methyltransferase inhibition
physchem [5] = experiment: physchem; remark: listed apart in the source

Sequence of HCoV-NL63 nsp14 (P0C6X5 5568-6085): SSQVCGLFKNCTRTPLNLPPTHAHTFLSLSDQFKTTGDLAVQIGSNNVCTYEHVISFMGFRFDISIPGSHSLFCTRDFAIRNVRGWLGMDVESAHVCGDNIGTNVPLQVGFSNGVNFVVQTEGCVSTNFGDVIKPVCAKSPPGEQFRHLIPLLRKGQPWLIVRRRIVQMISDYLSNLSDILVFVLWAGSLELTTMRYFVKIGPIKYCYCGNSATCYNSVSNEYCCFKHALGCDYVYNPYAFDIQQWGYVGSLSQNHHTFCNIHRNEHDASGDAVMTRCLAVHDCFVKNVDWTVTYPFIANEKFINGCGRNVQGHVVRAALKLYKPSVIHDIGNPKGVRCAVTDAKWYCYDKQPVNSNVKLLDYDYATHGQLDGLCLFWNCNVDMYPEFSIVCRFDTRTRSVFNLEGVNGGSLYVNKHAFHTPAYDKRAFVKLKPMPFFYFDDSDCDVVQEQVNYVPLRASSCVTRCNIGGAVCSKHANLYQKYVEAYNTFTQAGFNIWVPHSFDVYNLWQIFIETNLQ
T1 sequence (O43148 whole entry): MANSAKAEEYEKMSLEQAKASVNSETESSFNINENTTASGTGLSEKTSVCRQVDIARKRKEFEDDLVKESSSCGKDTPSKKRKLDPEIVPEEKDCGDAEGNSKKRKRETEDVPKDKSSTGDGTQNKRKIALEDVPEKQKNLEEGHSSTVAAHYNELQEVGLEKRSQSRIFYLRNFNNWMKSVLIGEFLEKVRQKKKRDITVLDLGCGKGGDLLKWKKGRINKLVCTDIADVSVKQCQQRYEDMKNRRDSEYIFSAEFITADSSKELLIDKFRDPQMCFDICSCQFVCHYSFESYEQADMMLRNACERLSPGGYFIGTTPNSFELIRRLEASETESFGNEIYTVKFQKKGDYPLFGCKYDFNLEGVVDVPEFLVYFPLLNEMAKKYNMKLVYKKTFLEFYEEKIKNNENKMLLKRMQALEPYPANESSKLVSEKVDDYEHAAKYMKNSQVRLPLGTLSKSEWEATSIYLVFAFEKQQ
T3 sequence (P0C6X1 5593-6110): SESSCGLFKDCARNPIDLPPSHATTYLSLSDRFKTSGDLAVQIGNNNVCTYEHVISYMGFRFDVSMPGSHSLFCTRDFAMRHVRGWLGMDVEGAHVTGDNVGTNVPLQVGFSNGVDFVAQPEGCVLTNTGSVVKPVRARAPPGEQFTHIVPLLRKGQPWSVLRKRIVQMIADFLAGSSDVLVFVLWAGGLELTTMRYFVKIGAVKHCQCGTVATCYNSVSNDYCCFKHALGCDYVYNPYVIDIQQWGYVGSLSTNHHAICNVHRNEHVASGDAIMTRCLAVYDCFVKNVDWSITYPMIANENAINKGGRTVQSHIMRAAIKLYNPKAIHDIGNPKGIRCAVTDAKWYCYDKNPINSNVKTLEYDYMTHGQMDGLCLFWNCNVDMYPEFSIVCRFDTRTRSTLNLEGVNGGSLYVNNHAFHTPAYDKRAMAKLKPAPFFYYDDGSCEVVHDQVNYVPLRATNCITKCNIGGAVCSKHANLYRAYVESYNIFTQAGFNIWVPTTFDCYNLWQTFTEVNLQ

SMILES | logD (physchem [1]) | IC50 (human RNMT [2]) [nM] | IC50 (SARS-CoV-2 nsp14; read-out: IC50) [nM] | IC50 (HCoV-229E nsp14; read-out: IC50) [nM] | half-life (in vitro) [min] | IC50 (HCoV-NL63 nsp14; read-out: IC50) [nM] | logD (physchem [3]) | logD (physchem [5]) | further results
Nc1ncnc2c1ccn2[C@@H]1O[C@H](CSc2nc3ccccc3s2)[C@@H](O)[C@H]1O [compound 27] | 1.6 | > 100000 | 55 ± 20 | 41 ± 4 | > 30 | 39 ± 6 | – | – | –
O[C@@H]1[C@H](O)[C@@H](CSc2nc3ccccc3s2)O[C@H]1n1cnc2c(NC3COC3)ncnc21 [compound 22] | – | – | – | – | – | – | 1.4 | – | –
Nc1ncnc2c1ncn2[C@@H]1O[C@H](CNc2nc3ccccc3s2)[C@@H](O)[C@H]1O [compound 24] | – | 54600 | > 100000 | – | – | – | 0.7 | – | –
CC(C)Nc1ncnc2c1ncn2[C@@H]1O[C@H](CSc2nc3ccccc3s2)[C@@H](O)[C@H]1O [compound 21] | – | – | > 100000 | – | – | – | 2.1 | – | IC50 (human RNMT [4]): > 100000 nM
Cc1ccc2ccc(SC[C@H]3O[C@@H](n4cnc5c(N)ncnc54)[C@H](O)[C@@H]3O)nc2c1 [compound 9] | – | 70500 | – | – | > 30 | – | – | 1.7 | IC50 (SARS-CoV-2 nsp14): 390 ± 60 nM; IC50 (HCoV-229E nsp14): 1400 ± 100 nM; IC50 (HCoV-NL63 nsp14): 500 ± 110 nM
Nc1ncnc2c1ncn2[C@@H]1O[C@H](CSc2ccc3cccnc3c2)[C@@H](O)[C@H]1O [compound 10] | – | > 100000 | 360 ± 110 | 580 ± 100 | > 30 | 170 ± 40 | – | 0.6 | –
Nc1ncnc2c1ncn2[C@@H]1O[C@H](CSc2nc3ccccc3o2)[C@@H](O)[C@H]1O [compound 14] | 1 | > 100000 | 670 ± 20 | 950 ± 20 | – | 660 ± 400 | – | – | –
Nc1ncnc2c1ncn2[C@@H]1O[C@H](CSc2ccc3ccccc3c2)[C@@H](O)[C@H]1O [compound 6] | – | > 100000 | 310 ± 120 | 470 ± 60 | 26.9 | 230 ± 20 | – | 1.8 | –
Nc1ncnc2c1ncn2[C@@H]1O[C@H](CCc2nc3ccccc3s2)[C@@H](O)[C@H]1O [compound 25] | – | – | 310 ± 70 | – | > 30 | – | 1 | – | IC50 (human RNMT [4]): > 100000 nM
Cc1ccc2nc(SC[C@H]3O[C@@H](n4cnc5c(N)ncnc54)[C@H](O)[C@@H]3O)ccc2c1 [compound 8] | – | > 100000 | – | – | > 30 | – | – | 1.7 | IC50 (SARS-CoV-2 nsp14): 1100 ± 70 nM; IC50 (HCoV-229E nsp14): 1900 ± 100 nM; IC50 (HCoV-NL63 nsp14): 520 ± 10 nM
Nc1ncnc2c1ncn2[C@@H]1O[C@H](CSc2cccc3cn[nH]c23)[C@@H](O)[C@H]1O [compound 16] | 0.7 | > 100000 | – | – | – | – | – | – | IC50 (SARS-CoV-2 nsp14; SAM and RNA cap substrate at KM (SAM 1.0 µM), unreliable (footnote: one IC50 measured > 100 µM)): 79000 ± 18000 nM
CCc1cn([C@@H]2O[C@H](CSc3nc4ccccc4s3)[C@@H](O)[C@H]2O)c2ncnc(N)c12 [compound 31] | 2.1 | > 100000 | 250 ± 200 | 120 ± 10 | – | 52 ± 9 | – | – | –
Nc1ncnc2c1ncn2[C@@H]1O[C@H](CSc2nc3ccccc3s2)[C@@H](O)[C@H]1O [compound 1] | – | > 100000 | 420 ± 300 | 310 ± 8 | > 30 | 190 ± 30 | – | 1.2 | –
CN(C)c1ncnc2c1ncn2[C@@H]1O[C@H](CSc2nc3ccccc3s2)[C@@H](O)[C@H]1O [compound 19] | – | – | – | – | – | – | 1.8 | – | IC50 (SARS-CoV-2 nsp14; SAM and RNA cap substrate at KM (SAM 1.0 µM), read-out: IC50): > 100000 nM
Nc1ncnn2c([C@@H]3O[C@H](CSc4nc5ccccc5s4)[C@@H](O)[C@H]3O)ccc12 [compound 35] | 1.5 | – | 370 ± 130 | 190 ± 40 | – | 100 ± 20 | – | – | –
